Literature values in US6372198B1, “Dentifrice for the mineralization and remineralization of teeth” (priority 2000, dated 2002).

Tested on: periodontal disease
Conditions: oral administration (pills, capsules, powders); certain clinical studies

## COC1=C(OC)C(=O)C(C/C=C(\C)CC/C=C(\C)CC/C=C(\C)CC/C=C(\C)CC/C=C(\C)CC/C=C(\C)CC/C=C(\C)CC/C=C(\C)CC/C=C(\C)CCC=C(C)C)=C(C)C1=O [coenzyme Q10]
  symptoms of periodontal disease, including inflammation, swelling, and bleeding of the gum tissues: alleviated the symptoms of periodontal disease
